≈ marks a conversion by molar mass, not a printed value.
Experiments:
Type in all cases: cell-based
[1] = system: ATCC9027 strain (Pseudomonas aeruginosa); experiment: Checkerboard antibacterial synergistic activity test with polymyxin E (FIC); parameters: key: FIC≤0.5 synergy; 0.5–1 additive; 1–2 indifferent; ≥2 antagonism; conditions: combined with polymyxin E
Method in brief: (§1)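 First, two-fold series of polymyxin E (16–0.015 μg/ml) and compound (256–4 μg/ml) were made in MH broth. Next, combinations went into a 96-well grid, bacterial liquid was added, and plates sat at 37° C. for 16 h. Finally, FIC was computed and classed (≤0.5 synergistic).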

[2] = system: ATCC13883 strain (Klebsiella pneumoniae); experiment: as above; parameters: key: FIC≤0.5 synergy; 0.5–1 additive; 1–2 indifferent; ≥2 antagonism; conditions: combined with polymyxin E
Method in brief: as §1

[3] = system: ATCC25922 strain (Escherichia coli); experiment: as above; parameters: key: FIC≤0.5 synergy; 0.5–1 additive; 1–2 indifferent; ≥2 antagonism; conditions: combined with polymyxin E
Method in brief: as §1

[4] = system: ATCC19606 strain (Acinetobacter baumannii); experiment: as above; parameters: key: FIC≤0.5 synergy; 0.5–1 additive; 1–2 indifferent; ≥2 antagonism; conditions: combined with polymyxin E
Method in brief: as §1

[5] = system: ATCC9027 strain (Pseudomonas aeruginosa); experiment: Broth microdilution, antibacterial activity of the compound used alone; conditions: for MIC: read-out: Antibacterial activity of the compound of Formula I, ATCC9027
Source text: (§2) The broth microdilution method was used to test the antibacterial effects of the compounds of the present invention against various Gram-negative bacterial strains when used alone.

[6] = system: ATCC13883 strain (Klebsiella pneumoniae); experiment: as above; conditions: for MIC: read-out: Antibacterial activity of the compound of Formula I, ATCC13883
Source text: as §2

[7] = system: ATCC25922 strain (Escherichia coli); experiment: as above; conditions: for MIC: read-out: Antibacterial activity of the compound of Formula I, ATCC25922
Source text: as §2

[8] = system: ATCC19606 strain (Acinetobacter baumannii); experiment: as above; conditions: for MIC: read-out: Antibacterial activity of the compound of Formula I, ATCC19606
Source text: as §2

| MIC [5] | MIC [6] | MIC [7] | MIC [8] | Compound | Synergistic activity (FIC value) ATCC9027 [1] | Synergistic activity (FIC value) ATCC13883 [2] | Synergistic activity (FIC value) ATCC25922 [3] | Synergistic activity (FIC value) ATCC19606 [4] | Antibacterial activity of the compound of Formula I, ATCC9027 [5] | Antibacterial activity of the compound of Formula I, ATCC13883 [6] | Antibacterial activity of the compound of Formula I, ATCC25922 [7] | Antibacterial activity of the compound of Formula I, ATCC19606 [8] |
| --- | --- | --- | --- | --- | --- | --- | --- | --- | --- | --- | --- | --- |
| – | – | – | – | NC(N)=Nc1nc(-c2cccc3c(Cl)cccc23)c[nH]1 [Compound I-65] | 1.25 | 1.25 | 1.25 | 0.5 | 256 µg/mL | 256 µg/mL | 256 µg/mL | 256 µg/mL |
| – | – | – | – | CNc1cc(C)cc(-c2csc(N=C(N)N)n2)c1 [Compound I-23] | 1.25 | 0.52 | 0.63 | 0.52 | 256 µg/mL | 256 µg/mL | 256 µg/mL | 256 µg/mL |
| – | – | – | – | NC(N)=Nc1nc(-c2cccc(Cl)c2)cs1 [Compound I-37] | 0.52 | 1.25 | 1.25 | 0.25 | 256 µg/mL | 256 µg/mL | 256 µg/mL | 256 µg/mL |
| – | – | – | – | Cc1cc(-c2csc(N=C3NCCCN3)n2)cc(C)c1O [Compound I-173] | 0.63 | 0.38 | 0.5 | 0.75 | 256 µg/mL | 256 µg/mL | 256 µg/mL | 256 µg/mL |
| – | – | – | – | NC(N)=Nc1nc(-c2ccc(C(F)(F)F)cc2)cs1 [Compound I-43] | 0.63 | 1.25 | 0.5 | 1.25 | 256 µg/mL | 256 µg/mL | 256 µg/mL | 256 µg/mL |
| – | – | – | – | O=[N+]([O-])c1ccc(Oc2ccc(I)cc2I)cc1-c1c[se]c(N=C2NCCCN2)n1 [Compound I-158] | 0.28 | 0.16 | 0.18 | 0.03 | 256 µg/mL | 256 µg/mL | 256 µg/mL | 256 µg/mL |
| – | – | – | – | CC(C)(C)c1ccccc1-c1coc(N=C(N)N)n1 [Compound I-10] | 1.25 | 1.25 | 0.5 | 1.25 | 256 µg/mL | 256 µg/mL | 256 µg/mL | 256 µg/mL |
| – | – | – | – | NC(N)=Nc1nc(-c2cc(I)c(O)c(I)c2)co1 [Compound I-35] | 1.25 | 0.19 | 0.52 | 0.13 | 256 µg/mL | 256 µg/mL | 256 µg/mL | 256 µg/mL |
| – | – | – | – | Cc1c(-c2coc(N=C3NCCCN3)n2)ccc(Cl)c1C#N [Compound I-169] | 0.62 | 0.33 | 0.39 | 0.15 | 256 µg/mL | 256 µg/mL | 256 µg/mL | 256 µg/mL |
| – | – | – | – | Clc1sc(N=C2NCCCN2)nc1-c1cccc(Br)c1 [Compound I-175] | 1.25 | 1.25 | 1.25 | 0.5 | 256 µg/mL | 256 µg/mL | 256 µg/mL | 256 µg/mL |
| – | – | – | – | CCc1[nH]c(N=C(N)N)nc1-c1cccc2c(C)cccc12 [Compound I-60] | 0.31 | 0.31 | 0.38 | 0.12 | 256 µg/mL | 256 µg/mL | 256 µg/mL | 256 µg/mL |
| – | – | – | – | CS(=O)(=O)Oc1ccc(-c2coc(N=C(N)N)n2)cc1 [Compound I-28] | 0.51 | 1.25 | 1.25 | 1.25 | 256 µg/mL | 256 µg/mL | 256 µg/mL | 256 µg/mL |
| – | – | – | – | Cc1ccccc1Oc1ccccc1-c1nc(N=C2NCCCN2)oc1Cl [Compound I-142] | 0.06 | 0.09 | 0.14 | 0.31 | 256 µg/mL | 256 µg/mL | 256 µg/mL | 256 µg/mL |
| – | – | – | – | NC(N)=Nc1nc(-c2ccccc2[N+](=O)[O-])c[nH]1 [Compound I-20] | 0.56 | 0.63 | 0.5 | 0.75 | 256 µg/mL | 256 µg/mL | 256 µg/mL | 256 µg/mL |
| – | – | – | – | Cc1ccc(NC(=O)Nc2cccc(-c3nc(N=C(N)N)sc3C)c2)c(C)c1 [Compound I-132] | 0.28 | 0.16 | 0.18 | 0.03 | 256 µg/mL | 256 µg/mL | 256 µg/mL | 256 µg/mL |
| – | – | – | – | Cc1oc(N=C2NCCCN2)nc1-c1cc(NS(C)(=O)=O)ccc1-c1ccco1 [Compound I-139] | 1.25 | 1.25 | 0.5 | 0.75 | 256 µg/mL | 256 µg/mL | 256 µg/mL | 256 µg/mL |
| – | – | – | – | NC(N)=Nc1nc(-c2cccc3ccsc23)c[nH]1 [Compound I-69] | 0.51 | 1.25 | 1.25 | 1.25 | 256 µg/mL | 256 µg/mL | 256 µg/mL | 256 µg/mL |
| 256 µg/mL (≈ 726 µM) | 256 µg/mL (≈ 726 µM) | 256 µg/mL (≈ 726 µM) | 256 µg/mL (≈ 726 µM) | NC(N)=Nc1nc(-c2cccc(NC(=O)Nc3ccccc3)c2)cs1 [Compound I-131] | 0.06 | 0.09 | 0.14 | 0.31 | – | – | – | – |
| 256 µg/mL (≈ 685 µM) | 256 µg/mL (≈ 685 µM) | 256 µg/mL (≈ 685 µM) | 256 µg/mL (≈ 685 µM) | NC(N)=Nc1nc(-c2cccc(NS(=O)(=O)c3ccccc3)c2)cs1 [Compound I-111] | 1.25 | 0.25 | 0.63 | 0.5 | – | – | – | – |
